From patent US20220031680A1, “Donecopride As Neuroprotective Agent In the Treatment of Neurodegenerative Diseases” (priority 2018, published 2022)
Values joined by “and” are separate entries in the source; they are usually repeats but may differ in a detail not shown here. Equal values may be shown once.

System: rat primary cortical neurons after glutamate injury
Assay: Survival and neurite network of primary cortical neurons after glutamate injury
Assay type: cell-based
Settings: glutamate 20 μM 20 min; for concentrations significantly protecting cortical neurons from death: compound 1 h before and 48 h after; for concentration of maximal effect on neurite network: cortical neurons
Method: The present study assesses the neuroprotective effect of MR36014 and MR33583 (at 4 concentrations) in rat primary cortical neurons after glutamate injury. The test compounds were pre-incubated for 1 hour before glutamate application (20 μM for 20 min). The neuroprotective effect (survival and neurite network) of test compounds were investigated.
Rat cortical neurons were cultured as described by Callizot et al. (2013) J. Neurosci. Res. 91:706-716. Pregnant female rat (Wistar) of 15 days of gestation were killed using a deep anesthesia with CO2 chamber and a cervical dislocation. Briefly, fetuses were collected and immediately placed in ice-cold L15 Leibovitz medium with a 2% penicillin (10,000 U/mL) and streptomycin (10 mg/mL) solution (PS) and 1% bovine serum albumin (BSA). Cortex were treated for 20 min at 37° C. with a trypsin-EDTA solution at a final concentration of 0.05% trypsin and 0.02% EDTA. The dissociation was stopped by addition of Dulbecco's modified Eagle's medium (DMEM) with 4.5 g/l of glucose, containing DNAse I grade II (final concentration 0.5 mg/ml) and 10% fetal calf serum (FCS). Cells were mechanically dissociated by three forced passages through the tip of a 10-ml pipette. Cells were then centrifuged at 515×g for 10 min at 4° C. The supernatant was discarded, and the pellet was resuspended in a defined culture medium consisting of Neurobasal medium with a 2% solution of B27 supplement, 2 mmol/I L-glutamine, 2% PS solution, and 10 ng/ml brain-derived neurotrophic factor (BDNF). Viable cells were counted in a Neubauer cytometer, using the trypan blue exclusion test.
The cells were seeded at a density of 25,000 per well in 96-well plates precoated with poly-L-lysine and were cultured at 37° C. in an air (95%)-CO2 (5%) incubator.
Pre-incubation: On day 13 of culture, the compounds were dissolved in the culture medium and pre-incubated with primary cortical neurons for 1 hour, before glutamate exposure.
Injury: 1 hour after test compound incubation, glutamate was added to a final concentration of 20 μM diluted in control medium still in presence of the test compounds for 20 min. After 20 min, glutamate was washed out and fresh culture medium with the test compounds were added for additional 48 hours.
Test compounds were tested in 96-well plate (n=6 culture wells per condition). The following conditions were assessed: […]
The following read-outs will be investigated: • The total neuron survival (MAP-2 positive, number), (data will be expressed into mean number of neurons of 30 pictures per well). • The total neurite network (MAP-2 in μm), (data will be expressed into mean of neurons of 30 pictures per well).

| Structure (SMILES) | concentrations significantly protecting cortical neurons from death | concentration of maximal effect on neurite network |
| --- | --- | --- |
| COc1cc(N)c(F)cc1C(=O)CCC1CCN(CC2CCCC2)CC1 [MR33583] | 50 nM and 100 nM | 50 nM |
| COc1cc(N)c(F)cc1C(=O)CCC1CCN(CC2CCCCCC2)CC1 [MR36014] | 1 nM | 1 nM |
